From US4256760A, “Methods of treating mammals suffering from inflammation and pain” (Laboratorios Bago S.A., priority 1979, dated 1981)

Legend:
[1] = Anti-inflammatory activity (carrageenin induced edema test); format: in vivo, male rats of Spargue Dawley strain; settings: for anti-inflammatory versus antinociceptive action (in words): conclusion; for % Edema Inhibition, 1 hour / % Edema Inhibition, 3 hours / % Edema Inhibition, 5 hours: oral, 30 min before carrageenin, mg/kg: ASA 100, its ester 173, XAA 120, its ester 186, TAA 60, its ester 88; for % Edema Inhibition, 1 hour: 1 hour after carrageenin; for % Edema Inhibition, 3 hours: 3 hours after carrageenin; for % Edema Inhibition, 5 hours: 5 hours after carrageenin
Experimental: Anti-inflammatory Activity (Carrageenin induced edema test)
Fifteen to twenty male rats of Spargue Dawley strain weighing 150-200 g, were employed for each compound tested. 0.1 ml of 1% carrageenin saline suspension was injected into the subplantar region of the right hind-paw. The test compounds were orally administered 30 minutes prior to the injection of carrageenin and the foot volume was determined 1,3 and 5 hours after the injection of carrageenin. The percent swelling in the foot was obtained by comparing the volume before and after the injection of carrageenin, and the rate of inhibition in the treated animals was calculated.

[2] = Influence on the gastro-intestinal tract (ulceration of the gastric epithelium, Shay et al.); format: in vivo, male rats of Sprague Dawley strain
Experimental: Influence on the gastro-intestinal tract
Ten male rats of Sprague Dawley strain, weighing 200-300 g were used for each compound tested. According to the method of Shay et al. (Shay, H., Komapov, S. A., Feb. S. S., Meranir, D., Gruenstein, M. Siplet, H. Gastroenterology 5, 43, 1945), under anesthesia, the pylorus was ligated and 4 hours later test compounds were orally administered. The animal was sacrificed 1 hour after compound administration. The stomach was removed and examined for macroscopic damage. The ulceration of the gastric epithelium was evaluated by the following evaluation: 0=no hemorrhage sites; 1=some isolated hemmorrhagic sites; 2=redness of the gastric epithelium; 3=1 to 5 small ulcers with a diameter smaller than 3 mm; 4=many small ulcers; 5=ulcers--greater than 3 mm; 6=perforated ulcer.

[3] = Analgesic activity, tail pressure test; format: in vivo, male mice of Rockland strain; settings: oral; control (water) = 0; mg/kg: ASA 100, its ester 173, XAA 50, its ester 77, TAA 50, its ester 73.5
Experimental: Tail pressure test: Ten male mice of Rockland strain weighing 20-25 g were used for each compound tested. The response threshold on applying pressure to the tail was determined with an analgesy meter at 15 and 60 minutes after oral administration of the test compound. The pressure at which a struggle was elicited was read.

[4] = Analgesic activity, Randall-Selitto's test; format: in vivo, male mice of Rockland strain; settings: oral, 30 min before carrageenin; control (water) = 0; mg/kg: ASA 100, its ester 173, XAA 50, its ester 77, TAA 50, its ester 73.5
Experimental: Randall-Selitto's method: Ten male mice of Rockland strain weighing 25 g were used for each compound tested. 0.1 ml of 1% carrageenin saline suspension was injected into the subplantar region of the right foot. The test compounds were orally administered 30 minutes before the injection. At hourly intervals for 3 hours after the carrageenin injection, the pain threshold for the inflammed feet was measured, determining the amount of pressure with an analgesy meter.

[5] = prior art, cited from earlier work; for anti-inflammatory effect (known): administered to mammals
[6] = oral, pylorus ligated, 1 hour after administration, 0=no hemorrhage sites ... 6=perforated ulcer, control 3.0, mg/kg: phenylbutazone 75, ASA 100, its ester 173, XAA 120, its ester 186, TAA 60, its ester 88
[7] = oral, pylorus ligated, 1 hour after administration, versus control (distilled water) 3.0, doses as for Evaluation

Structure (SMILES)	anti-inflammatory versus antinociceptive action (in words) [1]	% Edema Inhibition, 1 hour [1] [%]	% Edema Inhibition, 3 hours [1] [%]	% Edema Inhibition, 5 hours [1] [%]	Evaluation (ulceration of the gastric epithelium, score 0-6) [2, 6]	Increase (of ulceration evaluation) [2, 7]	Relative strength, Tail pressure test [3]	Relative strength, Randall-Selitto test [4]	analgesic effect (known) [5]	anti-inflammatory effect (known) [5]	Evaluation (ulceration of the gastric epithelium, score 0-6) ([2]; rat, in vivo, po)	Increase (of ulceration evaluation) ([2]; rat, in vivo, po)
Cc1cccc(Nc2ccccc2C(=O)OC2OC(=O)c3ccccc32)c1C (centres unmarked) [Phthalidyl N-(2',3'-xylyl) anthranylate, Phthalydil N(2',3'-xylyl) anthranylate]	act as anti-inflammatory agents more tha as antinociceptive agents	27.4	34.2	30.4	3.3	0.3						
O=C(OC1OC(=O)c2ccccc21)c1ccccc1Nc1cccc(C(F)(F)F)c1 (centres unmarked) [Phthalydil N(3'-trifluoromethylphenyl) anthranylate]	act as anti-inflammatory agents more tha as antinociceptive agents	35.4	40.2	37.4	3.5	0.5						
CC(=O)Oc1ccccc1C(=O)OC1OC(=O)c2ccccc21 (centres unmarked) [Phthalidyl acetylsalicylate, Phthalydil o-acetylsalicylate]		10.2	30.30	31.0	3.0		1.82	1.54				
CC(=O)Oc1ccccc1C(=O)O [Acetylsalicylic acid (ASA), o-Acetylsalicylic acid]		3.8	24.8	25.3	4.1	1.1	1.00	1.05	known to have an analgesic effect			
O=C(O)c1cccnc1Nc1cccc(C(F)(F)F)c1 [2 (3'-trifluoromethyl) anilino) pyridine-3-carboxylic acids]										known to have an anti-inflammatory effect		
O=C(O)c1ccccc1Nc1cccc(C(F)(F)F)c1 [N (3'-trifluoromethylphenyl) anthranylic acid]		24.3	29.3	28.3						known to have an anti-inflammatory effect	4.9	1.9
CCCCC1C(=O)N(c2ccccc2)N(c2ccccc2)C1=O [Phenylbutazone]					5.5	2.5						
Cc1cccc(Nc2ccccc2C(=O)O)c1C [N-(2',3'-xylyl) anthranylic acid (XAA), N (2',3'-dimethylphenyl) anthranylic acid]					4.2	1.2				known to have an anti-inflammatory effect		
